Assay: recombinant UMI read abundance after kanamycin selection (control-corrected) (log10(CPM+1)); higher = more efficient recombination; extreme values may be limits of the assay; sequences stand for … in AGTGCAGAGAAAATCGGCCAGTTTTCTCTGCCTGCAGTCCGCATGCCGTGGGACCCCTTGGGTTCTAACCTGTTGCCTAGATTTATGCAGCGGACTGCCTTTCTCCCAAAGTGATAAACCGG…AGGTTGGTTTCACT; site = the 11-nt donor
How it was run: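 For the IS621 bridge recombinase, a pooled Escherichia coli screen tested donor and donor-binding-loop pairs. Cells received the pair library together with a target plasmid encoding a fixed target and T7-inducible recombinase, then went onto IPTG (0.07 mM) plus kanamycin or unselected plates in duplicate. After PCR across the donor–target junction and sequencing, recombinant UMI counts were normalized to CPM, averaged, and scaled by control-derived factors. Each value is given as log10(CPM+1).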
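Note: IS621 bridge recombinase in Escherichia coli cells against a fixed T5 target plasmid.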

| Sequence | recombinant UMI read abundance (log10) |
| --- | --- |
| CACCGTCCATGGACCGGTTTTCCCGGTAATCCGTATTTGAT (site TACCGTCCTAT) | 0.0173 |
| CACCTCTCATGGACCGGTTTTCCCGGTAATCCGTATTTGCT (site CACCTCTCTAG) | 2.84 |
| CACCTGCCATGGACCGGTTTTCCCGGTAATCCGTATTTGTC (site CACCTGCCTGA) | 0 |
| CACCTTACATGGACCGGTTTTCCCGGTAATCCGTATTTGGG (site CACCTTACTCC) | 0.0575 |
| CACGCAGCATGGACCGGTTTTCCCGGTAATCCGTATTTGCT (site CAAGCAGCTAG) | 0 |
| CACGCAGCATGGACCGGTTTTCCCGGTAATCCGTATTTGCT (site CACGCAGCTAG) | 2.31 |
| CACGCAGCATGGACCGGTTTTCCCGGTAATCCGTATTTGCT (site CAGGCAGCTAG) | 0.261 |
| CACGCAGCATGGACCGGTTTTCCCGGTAATCCGTATTTGCT (site CATGCAGCTAG) | 0 |
| CACGCCGCATGGACCGGTTTTCCCGGTAATCCGTATTTGGT (site TTAAGTTCTTG) | 0 |
| CACGCGTCATGGACCGGTTTTCCCGGTAATCCGTATTTGAG (site CACGCGTCTCT) | 2.11 |
| CACGGCACATGGACCGGTTTTCCCGGTAATCCGTATTTGTT (site CACGGCACTAA) | 1.6 |
| CACGGCACATGGACCGGTTTTCCCGGTAATCCGTATTTGTT (site CACGGCCCTAA) | 0.00343 |
| CACGGCACATGGACCGGTTTTCCCGGTAATCCGTATTTGTT (site CACGGCGCTAA) | 0.6 |
| CACGGCACATGGACCGGTTTTCCCGGTAATCCGTATTTGTT (site CACGGCTCTAA) | 0.746 |
| CACGGCTCATGGACCGGTTTTCCCGGTAATCCGTATTTGTT (site CACGGCACTAA) | 0.963 |
| CACGGCTCATGGACCGGTTTTCCCGGTAATCCGTATTTGTT (site CACGGCCCTAA) | 0.277 |
| CACGGCTCATGGACCGGTTTTCCCGGTAATCCGTATTTGTT (site CACGGCGCTAA) | 0.0461 |
| CACGGCTCATGGACCGGTTTTCCCGGTAATCCGTATTTGTT (site CACGGCTCTAA) | 3.26 |
| CACGTACCATGGACCGGTTTTCCCGGTAATCCGTATTTGAA (site CACGTACCTTT) | 0.24 |
| CACGTCACATGGACCGGTTTTCCCGGTAATCCGTATTTGAG (site CACGTCACTCT) | 1.36 |
| CACTACGCATGGACCGGTTTTCCCGGTAATCCGTATTTGGA (site CACTACGCTTC) | 1.41 |
| CACTCATCATGGACCGGTTTTCCCGGTAATCCGTATTTGCC (site CACTCATCTGG) | 1.74 |
| CACTCATCATGGACCGGTTTTCCCGGTAATCCGTATTTGCC (site CACTCCTCTGG) | 0.652 |
| CACTCATCATGGACCGGTTTTCCCGGTAATCCGTATTTGCC (site CACTCGTCTGG) | 0 |
| CACTCATCATGGACCGGTTTTCCCGGTAATCCGTATTTGCC (site CACTCTTCTGG) | 0 |

| Sequence | recombinant UMI read abundance (log10) |
| --- | --- |
| CACTCCACATGGACCGGTTTTCCCGGTAATCCGTATTTGCC (site CACTCCACTGG) | 2.65 |
| CACTCCACATGGACCGGTTTTCCCGGTAATCCGTATTTGCC (site CACTCCCCTGG) | 0 |
| CACTCCACATGGACCGGTTTTCCCGGTAATCCGTATTTGCC (site CACTCCGCTGG) | 1.8 |
| CACTCCACATGGACCGGTTTTCCCGGTAATCCGTATTTGCC (site CACTCCTCTGG) | 1.26 |
| CACTCCGCATGGACCGGTTTTCCCGGTAATCCGTATTTGCC (site CACTCCACTGG) | 2.05 |
| CACTCCGCATGGACCGGTTTTCCCGGTAATCCGTATTTGCC (site CACTCCCCTGG) | 0 |
| CACTCCGCATGGACCGGTTTTCCCGGTAATCCGTATTTGCC (site CACTCCGCTGG) | 2.73 |
| CACTCCGCATGGACCGGTTTTCCCGGTAATCCGTATTTGCC (site CACTCCTCTGG) | 1.36 |
| CACTCCTCATGGACCGGTTTTCCCGGTAATCCGTATTTGAG (site CACTCCTCTCT) | 0.883 |
| CACTCCTCATGGACCGGTTTTCCCGGTAATCCGTATTTGCA (site CACTCCTCTAG) | 0.743 |
| CACTCCTCATGGACCGGTTTTCCCGGTAATCCGTATTTGCA (site CACTCCTCTCG) | 1.09 |
| CACTCCTCATGGACCGGTTTTCCCGGTAATCCGTATTTGCA (site CACTCCTCTGG) | 1.21 |
| CACTCCTCATGGACCGGTTTTCCCGGTAATCCGTATTTGCA (site CACTCCTCTTG) | 2.98 |
| CACTCCTCATGGACCGGTTTTCCCGGTAATCCGTATTTGCC (site AACTCCTCTGG) | 0.563 |
| CACTCCTCATGGACCGGTTTTCCCGGTAATCCGTATTTGCC (site CAATCCTCTGG) | 0.883 |
| CACTCCTCATGGACCGGTTTTCCCGGTAATCCGTATTTGCC (site CACACCTCTGG) | 1.79 |
| CACTCCTCATGGACCGGTTTTCCCGGTAATCCGTATTTGCC (site CACCCCTCTGG) | 2.8 |
| CACTCCTCATGGACCGGTTTTCCCGGTAATCCGTATTTGCC (site CACGCCTCTGG) | 0.524 |
| CACTCCTCATGGACCGGTTTTCCCGGTAATCCGTATTTGCC (site CACTACTCTGG) | 1.17 |
| CACTCCTCATGGACCGGTTTTCCCGGTAATCCGTATTTGCC (site CACTCATCTGG) | 0.425 |
| CACTCCTCATGGACCGGTTTTCCCGGTAATCCGTATTTGCC (site CACTCCACTGG) | 0.838 |
| CACTCCTCATGGACCGGTTTTCCCGGTAATCCGTATTTGCC (site CACTCCCCTGG) | 0.105 |
| CACTCCTCATGGACCGGTTTTCCCGGTAATCCGTATTTGCC (site CACTCCGCTGG) | 0.0071 |
| CACTCCTCATGGACCGGTTTTCCCGGTAATCCGTATTTGCC (site CACTCCTCTAG) | 1.36 |
| CACTCCTCATGGACCGGTTTTCCCGGTAATCCGTATTTGCC (site CACTCCTCTCG) | 0.00305 |

| Sequence | recombinant UMI read abundance (log10) |
| --- | --- |
| CACTCCTCATGGACCGGTTTTCCCGGTAATCCGTATTTGCC (site CACTCCTCTGA) | 0.906 |
| CACTCCTCATGGACCGGTTTTCCCGGTAATCCGTATTTGCC (site CACTCCTCTGC) | 0.0424 |
| CACTCCTCATGGACCGGTTTTCCCGGTAATCCGTATTTGCC (site CACTCCTCTGG) | 3.11 |
| CACTCCTCATGGACCGGTTTTCCCGGTAATCCGTATTTGCC (site CACTCCTCTGT) | 2.74 |
| CACTCCTCATGGACCGGTTTTCCCGGTAATCCGTATTTGCC (site CACTCCTCTTG) | 2.48 |
| CACTCCTCATGGACCGGTTTTCCCGGTAATCCGTATTTGCC (site CACTCGTCTGG) | 0 |
| CACTCCTCATGGACCGGTTTTCCCGGTAATCCGTATTTGCC (site CACTCTTCTGG) | 0 |
| CACTCCTCATGGACCGGTTTTCCCGGTAATCCGTATTTGCC (site CACTGCTCTGG) | 0.00619 |
| CACTCCTCATGGACCGGTTTTCCCGGTAATCCGTATTTGCC (site CACTTCTCTGG) | 0 |
| CACTCCTCATGGACCGGTTTTCCCGGTAATCCGTATTTGCC (site CAGTCCTCTGG) | 1.2 |
| CACTCCTCATGGACCGGTTTTCCCGGTAATCCGTATTTGCC (site CATTCCTCTGG) | 1.62 |
| CACTCCTCATGGACCGGTTTTCCCGGTAATCCGTATTTGCC (site CCCTCCTCTGG) | 0.97 |
| CACTCCTCATGGACCGGTTTTCCCGGTAATCCGTATTTGCC (site CGCTCCTCTGG) | 1.95 |
| CACTCCTCATGGACCGGTTTTCCCGGTAATCCGTATTTGCC (site CTCTCCTCTGG) | 2.29 |
| CACTCCTCATGGACCGGTTTTCCCGGTAATCCGTATTTGCC (site GACTCCTCTGG) | 0 |
| CACTCCTCATGGACCGGTTTTCCCGGTAATCCGTATTTGCC (site TACTCCTCTGG) | 1.39 |
| CACTCCTCATGGACCGGTTTTCCCGGTAATCCGTATTTGCG (site CACTCCTCTAG) | 1.11 |
| CACTCCTCATGGACCGGTTTTCCCGGTAATCCGTATTTGCG (site CACTCCTCTCG) | 1.71 |
| CACTCCTCATGGACCGGTTTTCCCGGTAATCCGTATTTGCG (site CACTCCTCTGG) | 0 |
| CACTCCTCATGGACCGGTTTTCCCGGTAATCCGTATTTGCG (site CACTCCTCTTG) | 2.29 |
| CACTCCTCATGGACCGGTTTTCCCGGTAATCCGTATTTGGC (site CACTCCTCTGA) | 0.526 |
| CACTCCTCATGGACCGGTTTTCCCGGTAATCCGTATTTGGC (site CACTCCTCTGC) | 2.75 |
| CACTCCTCATGGACCGGTTTTCCCGGTAATCCGTATTTGGC (site CACTCCTCTGG) | 0.943 |
| CACTCCTCATGGACCGGTTTTCCCGGTAATCCGTATTTGGC (site CACTCCTCTGT) | 2.45 |
| CACTGGGCATGGACCGGTTTTCCCGGTAATCCGTATTTGGA (site CACTAGGCTTC) | 0.812 |

From the supplement of paper PMC11208160
